{
  "source": "paper PMC8864869",
  "about": "“A short peptide derived from pigment epithelial-derived factor exhibits an angioinhibitory effect” (BMC Ophthalmology, 2022)",
  "key": {"[1]": {"tested_on": "rat aortic ring", "assay": "Rat aortic ring assay", "settings": "100 μM 7-mer, 5 days", "procedure": "Thoracic aortas were removed from euthanized 10-week-old male Sprague Dawley rats and gently stripped of periaortic fibroadipose tissue. Aortas were sectioned into ~ 1 mm length rings, being manipulated in Medium 200. Matrigel (120 μl) mixed with 24 μl LSGS, 72 μl medium, 200 ng/ml VEGF and 100 μM 7-mer was used to embed the aortic ring and then polymerized in 12-well plates (37 °C for 30 min). Subsequently, 1 ml culture medium supplemented with 100 units/ml penicillin, and […] was added. The cultures were propagated at 37 °C in a humidified incubator for up to 5 days. Sprouts were recorded using an inverted microscope platform (Leica DMI6000B) with bright-field optics. Each ring was scored by three independent observers on a scale 0–3, depending on the degree of vessel sprouting observed (0 = no sprouting, 3 = profuse sprouting).\n(§1) Fig. 6 The effect of the 7-mer on VEGF-induced microvessel sprouting of aortic ring and corneal neovascularization. a Rat aortic ring assay. Photomicrographs of aortic ring explants after treatment for 5 days (magnification × 40). Sprouting was evaluated on a scale from 0 (no sprouts) to 3 (profuse sprouting). There was no sprouting of vessels from ex vivo aortic rings embedded in Matrigel without LSGS or VEGF. b The 7-mer inhibits VEGF-induced corneal angiogenesis in C57BL/6 mice. […]"}, "[2]": {"tested_on": "p38 MAPK", "assay": "Western blot of phosphorylated p38 MAPK in RPMI8226 cells", "assay_type": "cell-based, human", "settings": "10 ng/ml VEGF + 25 μM 7-mer, time course", "text": "(§2) Cell lysis and SDS–PAGE were as described previously. Antibodies used in this study were for active p38 MAPK and active JNK (Promega, Madison, WI), p38 MAPK/SAPK2, JNK (Upstate Biotechnology, Lake Placid, NY), p53 (Chemicon, Temecula, CA), bax, p21, cleaved caspase-3 and β-actin (Abcam Ltd., Cambridge, UK). Proteins of interest were detected using the appropriate IgG-horseradish peroxidase-linked secondary antibody (Santa Cruz Biotechnology) and enhanced chemiluminescence reagent (Amersham, Arlington Heights, IL). X-ray films were scanned on a model GS-700 Imaging Densitometer (Bio-Rad, Hercules, CA) and analyzed with Labworks 4.0 software. For quantification, blots from at least three independent experiments were used.\nFig. 3 The 7-mer induces JNK signaling to trigger RPMI8226 cell apoptosis. […] Antibodies were then stripped and the blots were re-incubated with anti-JNK and anti-p38 MAPK antibodies (lower panels), respectively, to detect the levels of total JNK and p38 MAPK. b Densitometric analyses from three independent experiments are shown. c Cell were pretreated with 10 μM SP600125 or SB203580 for 10 min and then treated as described above for 24 h and apoptosis was quantified using the annexin V-FITC apoptosis detection kit. *P < 0.0001 versus 7-mer-treated cells"}, "[3]": {"tested_on": "VEGF-induced corneal neovascularization", "assay": "Mouse corneal micropocket assay", "assay_type": "in vivo", "settings": "C57BL/6 mice, pellet with 200 ng VEGF + 2.5 μg 7-mer, day 7", "procedure": "The assay was performed according to procedures described previously. Briefly, corneal micropockets were created in 6-week-old C57BL/6 mice with the needle of 1-ml injector. A micropellet of sucrose aluminum sulfate and hydron polymer containing 200 ng VEGF, with or without 2.5 μg 7-mer peptide, was delivered into each corneal pocket. Eyes were photographed by a slit-lamp biomicroscope on day 7 after micropellet implantation. Ingrowth of the blood vessels into the avascular cornea, towards the pellet, was scored as a positive response. The results are reported as the fraction of positive corneas of the total implanted.\nas §1, with “mice. Representative corneas and final scoring determining the number of positive corneas per total implantations.” for “mice.”"}, "[4]": {"tested_on": "JNK", "assay": "Western blot of phosphorylated JNK in RPMI8226 cells", "assay_type": "cell-based, human", "settings": "10 ng/ml VEGF + 25 μM 7-mer", "text": "as §2\n(§3) Fig. 3 The 7-mer induces JNK signaling to trigger RPMI8226 cell apoptosis. 3 × 10^5 cells were serum starved for 24 h and then exposed to 10 ng/ml VEGF and 25 μM 7-mer for the indicated time periods. a Western blotting was performed to detect the active phosphorylated forms of JNK (p-JNK) and p38 MAPK (p-p38), shown in the upper panels. Antibodies were then stripped and the blots were re-incubated with anti-JNK and anti-p38 MAPK antibodies (lower panels), respectively, to detect the levels of total JNK and p38 MAPK. b Densitometric analyses from three independent experiments are shown. c Cell were pretreated with 10 μM SP600125 or SB203580 for 10 min and then treated as described above for 24 h and apoptosis was quantified using the annexin V-FITC apoptosis detection kit. *P < 0.0001 versus 7-mer-treated cells"}, "[5]": {"tested_on": "p53, Bax, p21, cleaved caspase-3", "assay": "Western blot of p53, Bax, p21 and cleaved caspase-3 in RPMI8226 cells", "assay_type": "cell-based, human", "text": "as §2\nFig. 4 The 7-mer induces JNK signaling to trigger p53/bax/p21^Waf1 expression in RPMI8226 cells. a and b Cell treatments were as described in Fig. 3. Cell lysates were then prepared for western blot analysis of p53, Bax, and p21. Representative blots and densitometric analyses from three independent experiments are shown. ^*P < 0.001 versus 7-mer-treated cells"}, "[6]": {"tested_on": "RPMI8226 cells", "assay": "Annexin V-FITC/PI double-staining apoptosis assay in RPMI8226 cells", "assay_type": "cell-based, human", "settings": "10 ng/ml VEGF + 25 μM peptide, 24 h, serum-free; early + late apoptosis; mean ± SD, three independent experiments", "procedure": "Cell apoptosis was examined using a TACS annexin V-FITC kit according to the manufacturer’s instructions for in situ staining. The cell numbers were monitored by counterstaining with Hoechst 33342. Afterward, apoptosis was examined and photographed by a Zeiss epifluorescence microscope (× 100, 10 fields/sample). Images were recorded on Zeiss software.\nFig. 2 The 34-mer and 7-mer induce apoptosis of RPMI8226 cells. a Fluorescence microscopy of annexin V-FITC/PI double staining. Treatment of RPMI8226 cells was as described in Fig. 1. Apoptosis was determined by annexin V-FITC staining (green dots) and double stained with propidium iodide (red dots). A representative of three independent experiments is shown. b The percentage of apoptotic cells was quantified by dividing the number of annexin V-positive cells by the total number of cells counted by phase-contrast light microscopy. Control peptide indicates cells were treated with the 5-mer. Histograms show means ± SD. ^aP < 0.005 versus peptide solvent-treated cells. ^bP < 0.0002 versus VEGF-treated cells. ^cP < 0.001 versus 34-mer-treated cells\nas §3"}, "[7]": {"settings": "7-mer for 8 h, VEGF-treated RPMI8226 cells, densitometry, three independent experiments"}},
  "data": [
    {"substance": "7-mer: PEDF Asp64-Ser70, N-acetylated, C-amidated (Ac-DLYRVRS-NH2; UniProt P36955 64-70, looked up, fragment)", "values": [
      {"measurement": "VEGF-induced outgrowth of sprouts from aortic rings", "setting": "[1]; 200 ng/ml VEGF, P = 0.001", "result": "this outgrowth was suppressed"},
      {"measurement": "sprouts of aortic rings exposed to LSGS and VEGF", "setting": "[1]; LSGS + 200 ng/ml VEGF", "result": "blocked by the 7-mer"},
      {"measurement": "p38 MAPK phosphorylation", "setting": "[2]", "result": "no significant effect on p38 MAPK phosphorylation"},
      {"measurement": "VEGF-induced neovessels in the corneas", "setting": "[3]", "result": "prevented by the 7-mer"},
      {"measurement": "Positive Corneas /Total", "setting": "[3]; vehicle 10/12", "result": "0/8"},
      {"measurement": "time for which JNK phosphorylation was sustained", "setting": "[4]", "result": "up to 10 h"},
      {"measurement": "time of peak p-p46 JNK", "setting": "[4]", "result": 2, "unit": "h"},
      {"measurement": "p-p46 JNK phosphorylation", "setting": "[4]; time course", "result": "increase in p-p46 JNK was detected 20 min after 7-mer treatment"},
      {"measurement": "Bax protein level compared to solvent control", "setting": "[5]; [7]", "result": "4.5 ± 0.40", "unit": "fold"},
      {"measurement": "p21Waf1 protein level compared to solvent control", "setting": "[5]; [7]", "result": "5.5 ± 0.43", "unit": "fold"},
      {"measurement": "p53 protein level compared to solvent control", "setting": "[5]; [7]", "result": "3.6 ± 0.39", "unit": "fold"},
      {"measurement": "cleaved/active caspase-3", "setting": "[5]; 7-mer treatment for 24 h", "result": "elevation of cleaved/active caspase-3"},
      {"measurement": "apoptotic (annexin V+) RPMI8226 cells", "setting": "[6]", "result": "38.6 ± 2.1", "unit": "%"}
    ]}
  ]
}
